Measured values from PubChem BioAssay AID1963850 (Molecular Pharmacology Branch, DTP, NCI, 2024).

System: 192522-019-R-J2-PDC complex tumor spheroid viability
Assay: Anticancer human tumor 192522-019-R-J2-PDC patient-derived colon adenocarcinoma cell line growth inhibition [POLQ]
Details: for IC50: curve of first compound; for viability, T/C: stronger effect = lower value
Method in brief: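 Growth inhibition in 3D: complex spheroids (tumor PDC, HUVEC, MSC) treated with POLQ inhibitor combinations; where Cmax unknown, highest tested concentration 10 microM, except SN-38 at 1 microM.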

[1] = second compound 0.0316 µM, first compound 0.000316 µM
[2] = second compound 0.0316 µM, first compound 0.001 µM
[3] = second compound 0.0316 µM, first compound 0.00316 µM
[4] = second compound 0.0316 µM, first compound 0.01 µM
[5] = second compound 0.0316 µM, first compound 0.0316 µM
[6] = second compound 0.0316 µM, first compound 0.1 µM
[7] = second compound 0.1 µM, first compound 0.000316 µM
[8] = second compound 0.1 µM, first compound 0.001 µM
[9] = second compound 0.1 µM, first compound 0.00316 µM
[10] = second compound 0.1 µM, first compound 0.01 µM
[11] = second compound 0.1 µM, first compound 0.0316 µM
[12] = second compound 0.1 µM, first compound 0.1 µM
[13] = second compound 0.316 µM, first compound 0.000316 µM
[14] = second compound 0.316 µM, first compound 0.001 µM
[15] = second compound 0.316 µM, first compound 0.00316 µM
[16] = second compound 0.316 µM, first compound 0.01 µM
[17] = second compound 0.316 µM, first compound 0.0316 µM
[18] = second compound 0.316 µM, first compound 0.1 µM
[19] = second compound 1 µM, first compound 0.000316 µM
[20] = second compound 1 µM, first compound 0.001 µM
[21] = second compound 1 µM, first compound 0.00316 µM
[22] = second compound 1 µM, first compound 0.01 µM
[23] = second compound 1 µM, first compound 0.0316 µM
[24] = second compound 1 µM, first compound 0.1 µM
[25] = second compound 3.16 µM, first compound 0.000316 µM
[26] = second compound 3.16 µM, first compound 0.001 µM
[27] = second compound 3.16 µM, first compound 0.00316 µM
[28] = second compound 3.16 µM, first compound 0.01 µM
[29] = second compound 3.16 µM, first compound 0.0316 µM
[30] = second compound 3.16 µM, first compound 0.1 µM
[31] = second compound 10 µM, first compound 0.000316 µM
[32] = second compound 10 µM, first compound 0.001 µM
[33] = second compound 10 µM, first compound 0.00316 µM
[34] = second compound 10 µM, first compound 0.01 µM
[35] = second compound 10 µM, first compound 0.0316 µM
[36] = second compound 10 µM, first compound 0.1 µM
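Note: spheroids exposed to drugs for seven days before reading.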
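Throughout, for viability, T/C: 100% = DMSO vehicle control viability in luminescence.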

CC[C@@]1(O)C(=O)OCc2c1cc1n(c2=O)Cc2cc3c(CN(C)C)c(O)ccc3nc2-1 + Nc1ccc(C#CCN(C(=O)Cc2ncc(C(F)(F)F)cc2C(F)(F)F)c2ccc(F)cc2)nn1
IC50 (second compound 0.0316 µM): > 100 nM | IC50 (second compound 0.1 µM): > 100 nM | IC50 (second compound 0.316 µM): > 100 nM | IC50 (second compound 1 µM): > 100 nM | IC50 (second compound 3.16 µM): > 100 nM | IC50 (second compound 10 µM): > 100 nM | viability, T/C [1]: 96.2% | viability, T/C [2]: 103% | viability, T/C [3]: 97.1% | viability, T/C [4]: 108% | viability, T/C [5]: 98.5% | viability, T/C [6]: 77.3% | viability, T/C [7]: 111% | viability, T/C [8]: 105% | viability, T/C [9]: 103% | viability, T/C [10]: 99% | viability, T/C [11]: 107% | viability, T/C [12]: 79.1% | viability, T/C [13]: 107% | viability, T/C [14]: 109% | viability, T/C [15]: 97.8% | viability, T/C [16]: 103% | viability, T/C [17]: 95.7% | viability, T/C [18]: 77.7% | viability, T/C [19]: 113% | viability, T/C [20]: 104% | viability, T/C [21]: 106% | viability, T/C [22]: 109% | viability, T/C [23]: 97.8% | viability, T/C [24]: 78.2% | viability, T/C [25]: 99.6% | viability, T/C [26]: 99.9% | viability, T/C [27]: 103% | viability, T/C [28]: 99.3% | viability, T/C [29]: 97.5% | viability, T/C [30]: 84.8% | viability, T/C [31]: 106% | viability, T/C [32]: 94.7% | viability, T/C [33]: 101% | viability, T/C [34]: 95.1% | viability, T/C [35]: 92.3% | viability, T/C [36]: 87%

Cn1ncnc1[C@H]1c2n[nH]c(=O)c3cc(F)cc(c23)N[C@@H]1c1ccc(F)cc1 + COC1C(OC(N)=O)C(O)C(Oc2ccc3c(O)c(NC(=O)c4ccc(O)c(CC=C(C)C)c4)c(=O)oc3c2C)OC1(C)C
IC50 (second compound 0.0316 µM): > 100 nM | IC50 (second compound 0.1 µM): > 100 nM | IC50 (second compound 0.316 µM): > 100 nM | IC50 (second compound 1 µM): > 100 nM | IC50 (second compound 3.16 µM): > 100 nM | IC50 (second compound 10 µM): > 100 nM | viability, T/C [1]: 118% | viability, T/C [2]: 91.9% | viability, T/C [3]: 95.2% | viability, T/C [4]: 96.6% | viability, T/C [5]: 102% | viability, T/C [6]: 91.4% | viability, T/C [7]: 103% | viability, T/C [8]: 100% | viability, T/C [9]: 103% | viability, T/C [10]: 103% | viability, T/C [11]: 100% | viability, T/C [12]: 97.2% | viability, T/C [13]: 99.9% | viability, T/C [14]: 99.2% | viability, T/C [15]: 99.4% | viability, T/C [16]: 97.4% | viability, T/C [17]: 93.8% | viability, T/C [18]: 87.2% | viability, T/C [19]: 98.8% | viability, T/C [20]: 95.6% | viability, T/C [21]: 101% | viability, T/C [22]: 99.2% | viability, T/C [23]: 86.5% | viability, T/C [24]: 95.1% | viability, T/C [25]: 110% | viability, T/C [26]: 98.8% | viability, T/C [27]: 108% | viability, T/C [28]: 98.1% | viability, T/C [29]: 95.8% | viability, T/C [30]: 90.5% | viability, T/C [31]: 108% | viability, T/C [32]: 89.8% | viability, T/C [33]: 96.4% | viability, T/C [34]: 102% | viability, T/C [35]: 107% | viability, T/C [36]: 94.4%

CNCc1ccc(-c2[nH]c3cc(F)cc4c3c2CCNC4=O)cc1 + COC1C(OC(N)=O)C(O)C(Oc2ccc3c(O)c(NC(=O)c4ccc(O)c(CC=C(C)C)c4)c(=O)oc3c2C)OC1(C)C
IC50 (second compound 0.0316 µM): > 10000 nM | IC50 (second compound 0.1 µM): > 10000 nM | IC50 (second compound 0.316 µM): > 10000 nM | IC50 (second compound 1 µM): > 10000 nM | IC50 (second compound 3.16 µM): > 10000 nM | IC50 (second compound 10 µM): > 10000 nM | viability, T/C [5]: 94.4% | viability, T/C [6]: 90.5% | viability, T/C (second compound 0.0316 µM, first compound 0.316 µM): 96% | viability, T/C (second compound 0.0316 µM, first compound 1 µM): 99.2% | viability, T/C (second compound 0.0316 µM, first compound 3.16 µM): 102% | viability, T/C (second compound 0.0316 µM, first compound 10 µM): 99.3% | viability, T/C [11]: 110% | viability, T/C [12]: 96% | viability, T/C (second compound 0.1 µM, first compound 0.316 µM): 96.4% | viability, T/C (second compound 0.1 µM, first compound 1 µM): 103% | viability, T/C (second compound 0.1 µM, first compound 3.16 µM): 114% | viability, T/C (second compound 0.1 µM, first compound 10 µM): 96.4% | viability, T/C [17]: 107% | viability, T/C [18]: 102% | viability, T/C (second compound 0.316 µM, first compound 0.316 µM): 102% | viability, T/C (second compound 0.316 µM, first compound 1 µM): 107% | viability, T/C (second compound 0.316 µM, first compound 3.16 µM): 99.5% | viability, T/C (second compound 0.316 µM, first compound 10 µM): 101% | viability, T/C [23]: 99.7% | viability, T/C [24]: 96% | viability, T/C (second compound 1 µM, first compound 0.316 µM): 98.5% | viability, T/C (second compound 1 µM, first compound 1 µM): 104% | viability, T/C (second compound 1 µM, first compound 3.16 µM): 102% | viability, T/C (second compound 1 µM, first compound 10 µM): 97.5% | viability, T/C [29]: 110% | viability, T/C [30]: 98.7% | viability, T/C (second compound 3.16 µM, first compound 0.316 µM): 102% | viability, T/C (second compound 3.16 µM, first compound 1 µM): 101% | viability, T/C (second compound 3.16 µM, first compound 3.16 µM): 99.9% | viability, T/C (second compound 3.16 µM, first compound 10 µM): 95.7% | viability, T/C [35]: 102% | viability, T/C [36]: 95% | viability, T/C (second compound 10 µM, first compound 0.316 µM): 106% | viability, T/C (second compound 10 µM, first compound 1 µM): 96.9% | viability, T/C (second compound 10 µM, first compound 3.16 µM): 98.6% | viability, T/C (second compound 10 µM, first compound 10 µM): 102%
